Reference: US9751919B2, “Antimicrobial compositions comprising a hyaluronic acid binding peptide and a β-lactam antibiotic” (priority 2012, dated 2017)
Several values for one entry are separate records, joined by “and”; a condition that tells them apart may be missing. Equal entries are not always repeated. Where two headings read alike, the source gives them in different places.

What was measured:
E. coli = test: MIC (CLSI broth dilution), agent alone; type: cell-based, Escherichia coli; conditions: for MIC: agent alone
In short: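 E. coli strain 69717 was tested by CLSI 2005 broth macrodilution in cation-adjusted Mueller-Hinton broth with doubling dilutions. The inoculum was about 5×10^5 CFU/ml, incubated 24 h in ambient air. MIC is the lowest concentration preventing visible growth.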

P. aeruginosa = test: Checkerboard assay (FIC index); type: cell-based, Pseudomonas aeruginosa; conditions: antibiotic combined with PEP35
Description: (§1) The checkerboard assays were carried out as described by Eliopoulos and Moellering (Chapter 9) in Antibiotic in Laboratory Medicine, Lorian Ed. 1996 as well as Bonapace et al. Diagnostic Microbiology and Infectious Diseases 2002; 44:363-366 and Bonapace et al. Diagnostic Microbiology and Infectious Diseases 2000; 38:43-50. In brief, checkerboard assays were performed in 96 well microtitre trays using an 8-by-8 well configuration. […] 96-well custom designed microtitre plates contained 100 ul/well of cation adjusted Mueller-Hinton broth (eg. for Enterobacteriaceae) with or without lysed horse blood (2-5% V/V) [eg. for S. pneumoniae] and were inoculated to achieve a final concentration of approximately 5×10^5 CFU/ml and incubated in ambient air for 24 hours prior to reading. Colony counts were performed periodically to confirm inocula. Quality control was performed every two weeks using a variety of ATCC QC organisms including; S. pneumoniae 49619, S. aureus 29213, E. faecalis 29212, E. coli 25922 and P. aeruginosa 27853. For all antimicrobials as well as PEP35, CLSI criteria was used.
(§2) The fractional inhibitory concentration index (FIC index) was used to interpret synergy, antagonism or additivity/indifference. FIC index=FIC of drug A+FIC of drug B where:
(§3) The FIC of drug A and drug B is calculated as follows, FIC drug A=MIC of drug A in combination/MIC of drug A alone and FIC of drug B=MIC of drug B in combination/MIC of drug B alone. Synergy is defined as FIC index ≦0.5, additivity/indifference FIC >0.5-4 and antagonism FIC index >4.
(§4) Antimicrobials used included PEP35, cefazolin, ceftriaxone, vancomycin, linezolid, tigecycline and daptomycin versus Gram-positive cocci and PEP35, gentamicin, levofloxacin, piperacillin/tazobactam, meropenem and colistin (Polymyxin E) versus Gram-negative bacilli. These agents were obtained as laboratory grade powders from their respective manufacturers. Stock solutions were prepared and dilutions made as described by the Clinical Laboratory Standards Institute (2005 CLSI).
(§5) Organisms included Gram-positive cocci (2 strains of each): Methicillin-susceptible Staphylococcus aureus (MSSA), community-associated (CA) and healthcare-associated (HA) methicillin-resistant Staphylococcus aureus (MRSA), vancomycin-intermediate Staphylococcus aureus (VISA), vancomycin-resistant Staphylococcus aureus (VRSA), methicillin-resistant Staphylococcus epidermidis (MRSE), Streptococcus pyogenes, Streptococcus agalactiae, Streptococcus pneumoniae, Enterococcus faecalis, Enterococcus faecium and vancomycin-resistant enterococcus (VRE). Gram-negative bacilli tested (2 strains of each) included: E. coli, Pseudomonas aeruginosa, Klebsiella pneumoniae, K. oxytoca, Enterobacter cloacae, P. mirabilis and Stenotrophomonas maltophilia. MIC testing, following two subcultures from frozen stock were determined by the CLSI 2005 approved broth microdilution method.

S. maltophilia = test: Checkerboard assay (FIC index); type: cell-based, Stenotrophomonas maltophilia; conditions: antibiotic combined with PEP35
Description: as §1, §2, §3, §4, §5

[1] = test system: MRSA, VISA, VRSA and E. coli; test: Checkerboard assay, panel statement; type: cell-based
Description: Checkerboard assays were carried out as described by Bonapace et al.
as §1, with “Diagnostic” for “The checkerboard assays were carried out as described by Eliopoulos and Moellering (Chapter 9) in Antibiotic in Laboratory Medicine, Lorian Ed. 1996 as well as Bonapace et al. Diagnostic”, “2002; 44:363-366.” for “2002; 44:363-366 and Bonapace et al. Diagnostic Microbiology and Infectious Diseases 2000; 38:43-50.”, “27853. […] All peptides were assessed for synergy with β-lactams and vancomycin.” for “27853.”, “as the peptides,” for “as PEP35,”, “criteria were” for “criteria was”
as §2
as §3, with “was” for “is”, “additivity/indifference defined as a” for “additivity/indifference”, “between 0.5 and 4” for “>0.5-4”, “antagonism defined as an” for “antagonism”
The fractional inhibitory concentration index (FIC index) was used to interpret synergy, antagonism or additivity/indifference. FIC index=FIC of drug A+FIC of drug B where the FIC of drug A and drug B was calculated as follows, FIC drug A=MIC of drug A in combination/MIC of drug A alone and FIC of drug B=MIC of drug B in combination/MIC of drug B alone. Synergy was defined as FIC index ≦0.5, additivity/indifference defined as an FIC of between 0.5 and 4 and antagonism defined as an FIC index >4.

[2] = with cefazolin and ceftriaxone, versus CA-MRSA, HA-MRSA, VISA and VRSA
[3] = with meropenem versus CA-MRSA, HA-MRSA, and VISA

Molecule	MIC (E. coli; E. coli 69716, in µg/mL)	MIC (E. coli; E. coli 70752, in µg/mL)	Cefazolin (MIC) (E. coli; E. coli, antibiotic alone, two values in cell)	MIC (E. coli; Escherichia coli, E. coli control, read-out: MIC) [µg/mL]	Avg ΣFIC (range) (P. aeruginosa; P. aeruginosa 70849)	Avg ΣFIC (range) (P. aeruginosa; P. aeruginosa 71841)	MIC (E. coli; E. coli 69716, listed as Piperacillin-Tazobactam, in µg/mL)	MIC (E. coli; E. coli 70752)	Avg ΣFIC (range) (S. maltophilia; S. maltophilia 73062)	Avg ΣFIC (range) (S. maltophilia; S. maltophilia 77424)	MIC (E. coli; E. coli control) [µg/mL]	PEP35 (MIC) (E. coli; E. coli, peptide alone) [µg/mL]	synergy (in words) [1, 2]	synergy (in words) [1, 3]	activity (in words) (E. coli; vs E. coli)
Cc1nnc(SCC2=C(C(=O)O)N3C(=O)[C@@H](NC(=O)Cn4cnnn4)[C@H]3SC2)s1 [Cefazolin]	2	128	2/2	2	–	–	–	–	–	–	–	–	–	–	–
piperacillin/tazobactam	2	8	–	–	0.92 (0.62-1.12)	0.88 (0.56-1.12)	4 and 2	4/4	0.98 (0.62-1.25)	1.04 (0.75-1.25)	–	–	–	–	–
LKQKIKHVVKLKVVVKLRSQLVKRKQN (listed as Mus sp.) [PEP35]	128	128	–	–	–	–	–	–	–	–	64	64	synergistic effect	synergistic effect	–
KKKKKLQLQLNLIKKKVQVSVVVVRRH (Reordered human peptide sequence) [Scrambled PEP35]	8	8	–	–	–	–	–	–	–	–	–	–	synergistic effect	synergistic effect	active
C[C@@H](O)[C@H]1C(=O)N2C(C(=O)O)=C(S[C@@H]3CN[C@H](C(=O)N(C)C)C3)[C@H](C)[C@H]12 [Meropenem]	0.03	0.03	–	–	1.21 (1.03-1.5)	1.10 (1.0-1.25)	–	–	0.77 (0.5-1.03)	1.05 (0.75-1.25)	–	–	–	–	–
